# In EP0171441A1, “Prostaglandin analogues, processes for their preparation and compositions containing them” (ONO PHARMACEUTICAL CO., LTD., priority 1984, dated 1986):
# Tested on: cells originated from human mouth tumor (KB-cells)
# Assay: Test on inhibition of proliferation using cells originated from human mouth tumor (KB-cells)
# Format: cell-based
# Conditions: 96 h, stationary culture at 37°C for 4 days, Trypan Blue staining, surviving cell number relative to control
# Experimental: The cells originated from human mouth tumor (KB-cells) were added to Eagle's MEM culture solution containing 10% bovine fetal serum, the number of cells in the culture solution was adjusted to […] cells/ml, a solution in ethanol of the compound of the present invention was added to give a concentration of 5µg/ml or less (3 compounds) and the mixture subjected to stationary culture at 37°C for 4 days. As a control, a culture solution containing 0.1% of ethanol was similarly cultured. After the culture, the cells were
# stained by the Trypan Blue staining method, and the surviving cell number was measured to determine the IC50 value from the degree of inhibition relative to the control. Compounds are identified by the Example (described hereinafter) in which they are prepared.
row,SMILES,IC50
1,"CCCCCC=CC=C1C(=O)C=CC1CC=CCCCCOC(C)=O (stereo not drawn) [Compound 3, (5Z,14EZ)-1-0-acetyl-11-oxoprosta-5,9,12,14-tetraen-l-ol]",1.6 µg/mL
2,"CCCCCC=CC=C1C(=O)C=C[C@@H]1C/C=C\CCCCO [Compound 2, (5Z,14EZ)-11-oxoprosta-5,9,12,14-tetraen-1-ol]",< 1 µg/mL
3,"CCCCC[C@H](O)/C=C/[C@H]1C(=O)C[C@H](O)[C@@H]1C/C=C\CCCCOC(=O)C=C(C)C [Compound 1, 1-O-(3,3-dimethylacryloyl)-PGD2 alcohol]",2.1 µg/mL
4,CCCCC[C@H](O)/C=C/[C@H]1C(=O)C=C[C@@H]1C/C=C\CCCCOC(N)=O [Compound 1(c)],1.1 µg/mL
